The values below come from article PMC4826192 (Oncotarget, 2015).

The target in one data set is VEGFR3 (FLT4) (Homo sapiens, UniProt P35916). The data set is described as follows: In vitro kinase inhibition profile (biochemical). The settings on record: read-out: Biochemical (IC50 nmol/L).
In the next data set the target is PDGFRα (Homo sapiens, UniProt P16234). In words: In vitro kinase inhibition profile (biochemical). Particulars: read-out: Biochemical (IC50 nmol/L).
The target of another data set is DDR1 (Homo sapiens, UniProt Q08345). The data set is described as follows: In vitro kinase inhibition profile (biochemical). The settings on record: read-out: Biochemical (IC50 nmol/L).
Chain of DDR1 (Q08345 19-913): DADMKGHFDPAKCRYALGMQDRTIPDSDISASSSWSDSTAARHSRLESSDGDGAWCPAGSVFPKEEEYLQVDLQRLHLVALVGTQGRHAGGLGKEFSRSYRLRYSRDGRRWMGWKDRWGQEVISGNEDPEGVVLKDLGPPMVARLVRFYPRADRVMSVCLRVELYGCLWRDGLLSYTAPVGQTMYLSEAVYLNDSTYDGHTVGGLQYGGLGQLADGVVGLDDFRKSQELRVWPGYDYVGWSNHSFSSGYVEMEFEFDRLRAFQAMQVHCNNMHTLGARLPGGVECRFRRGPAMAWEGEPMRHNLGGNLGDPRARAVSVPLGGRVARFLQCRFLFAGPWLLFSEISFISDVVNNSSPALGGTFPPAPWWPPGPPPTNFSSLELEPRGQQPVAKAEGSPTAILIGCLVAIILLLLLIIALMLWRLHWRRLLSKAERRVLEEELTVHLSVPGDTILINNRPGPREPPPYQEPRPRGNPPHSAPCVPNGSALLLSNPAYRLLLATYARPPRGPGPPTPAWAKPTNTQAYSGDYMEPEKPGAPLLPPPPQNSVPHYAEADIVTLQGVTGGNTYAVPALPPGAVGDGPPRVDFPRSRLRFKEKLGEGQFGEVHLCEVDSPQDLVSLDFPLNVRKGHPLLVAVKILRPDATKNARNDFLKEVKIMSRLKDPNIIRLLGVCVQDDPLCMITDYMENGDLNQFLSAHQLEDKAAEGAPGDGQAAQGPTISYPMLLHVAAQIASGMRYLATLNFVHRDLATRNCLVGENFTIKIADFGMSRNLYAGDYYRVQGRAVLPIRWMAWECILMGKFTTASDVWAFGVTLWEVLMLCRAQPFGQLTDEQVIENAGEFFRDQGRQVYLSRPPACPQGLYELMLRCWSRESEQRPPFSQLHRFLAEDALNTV
For another data set, the target named is EPHB2 (Homo sapiens, UniProt P29323). The data set is described as follows: In vitro kinase inhibition profile (biochemical). The settings on record: read-out: Biochemical (IC50 nmol/L).
Another data set addresses YES (Homo sapiens, UniProt P07947). In words: In vitro kinase inhibition profile (biochemical). Particulars: read-out: Biochemical (IC50 nmol/L).
In the next data set the target is PYK2 (Homo sapiens, UniProt Q14289). In words: In vitro kinase inhibition profile (biochemical). The settings on record: read-out: Biochemical (IC50 nmol/L).
Chain of PYK2 (Q14289 whole entry): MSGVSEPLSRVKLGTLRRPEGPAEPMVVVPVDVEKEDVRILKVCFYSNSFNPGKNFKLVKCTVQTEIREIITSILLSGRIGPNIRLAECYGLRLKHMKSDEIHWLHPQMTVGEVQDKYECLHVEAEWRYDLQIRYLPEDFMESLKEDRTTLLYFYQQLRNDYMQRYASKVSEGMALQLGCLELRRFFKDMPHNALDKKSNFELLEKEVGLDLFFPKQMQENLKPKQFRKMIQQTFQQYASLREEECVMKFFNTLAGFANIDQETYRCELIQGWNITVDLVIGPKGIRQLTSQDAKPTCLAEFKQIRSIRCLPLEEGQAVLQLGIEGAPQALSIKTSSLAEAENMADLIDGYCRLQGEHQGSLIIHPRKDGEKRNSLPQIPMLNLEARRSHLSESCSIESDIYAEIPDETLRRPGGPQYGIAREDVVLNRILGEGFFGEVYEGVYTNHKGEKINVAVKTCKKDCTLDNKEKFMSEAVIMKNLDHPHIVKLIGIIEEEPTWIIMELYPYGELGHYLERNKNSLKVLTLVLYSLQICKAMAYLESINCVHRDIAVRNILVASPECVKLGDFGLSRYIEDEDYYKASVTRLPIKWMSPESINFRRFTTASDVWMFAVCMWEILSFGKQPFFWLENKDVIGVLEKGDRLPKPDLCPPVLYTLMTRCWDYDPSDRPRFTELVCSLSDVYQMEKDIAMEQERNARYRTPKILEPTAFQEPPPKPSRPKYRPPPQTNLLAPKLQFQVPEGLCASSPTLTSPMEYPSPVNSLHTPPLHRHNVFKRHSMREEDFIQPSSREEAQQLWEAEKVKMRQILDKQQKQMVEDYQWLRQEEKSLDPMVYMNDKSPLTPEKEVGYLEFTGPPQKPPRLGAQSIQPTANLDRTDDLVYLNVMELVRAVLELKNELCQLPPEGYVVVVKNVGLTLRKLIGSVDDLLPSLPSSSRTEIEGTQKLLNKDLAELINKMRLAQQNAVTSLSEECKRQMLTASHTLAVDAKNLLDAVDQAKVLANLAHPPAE
Another data set addresses EPHB3 (Homo sapiens, UniProt P54753). In words: In vitro kinase inhibition profile (biochemical). Particulars: read-out: Biochemical (IC50 nmol/L).
For a further data set, the target named is LTK (Homo sapiens, UniProt P29376). The data set is described as follows: In vitro kinase inhibition profile (biochemical). Particulars: read-out: Biochemical (IC50 nmol/L).
Chain of LTK (P29376 17-864): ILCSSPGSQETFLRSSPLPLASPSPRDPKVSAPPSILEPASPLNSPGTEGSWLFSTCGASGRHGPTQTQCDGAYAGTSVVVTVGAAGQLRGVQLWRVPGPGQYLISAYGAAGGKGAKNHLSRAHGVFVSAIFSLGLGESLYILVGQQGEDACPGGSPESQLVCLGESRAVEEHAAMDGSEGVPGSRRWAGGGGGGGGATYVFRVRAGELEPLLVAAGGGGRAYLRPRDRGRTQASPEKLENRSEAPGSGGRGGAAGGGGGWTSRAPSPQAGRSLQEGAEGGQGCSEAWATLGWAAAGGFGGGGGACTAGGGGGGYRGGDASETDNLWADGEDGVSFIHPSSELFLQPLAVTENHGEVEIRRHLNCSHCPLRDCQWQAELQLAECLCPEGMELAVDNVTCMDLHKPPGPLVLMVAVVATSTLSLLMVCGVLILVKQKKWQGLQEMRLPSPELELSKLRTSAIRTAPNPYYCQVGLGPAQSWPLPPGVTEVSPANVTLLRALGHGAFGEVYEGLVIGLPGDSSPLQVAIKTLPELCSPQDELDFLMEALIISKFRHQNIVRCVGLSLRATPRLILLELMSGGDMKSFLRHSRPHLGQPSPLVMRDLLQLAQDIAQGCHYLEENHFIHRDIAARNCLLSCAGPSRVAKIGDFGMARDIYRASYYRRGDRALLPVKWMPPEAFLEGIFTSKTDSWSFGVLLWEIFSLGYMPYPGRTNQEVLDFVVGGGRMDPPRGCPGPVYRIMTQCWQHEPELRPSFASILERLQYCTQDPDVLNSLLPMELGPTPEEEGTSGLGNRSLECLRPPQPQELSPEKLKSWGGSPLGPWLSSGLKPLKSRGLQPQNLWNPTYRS
The target in the next data set is FMS (Homo sapiens, UniProt P07333). The data set is described as follows: In vitro kinase inhibition profile (biochemical). The settings on record: read-out: Biochemical (IC50 nmol/L).
Chain of FMS (P07333 20-972): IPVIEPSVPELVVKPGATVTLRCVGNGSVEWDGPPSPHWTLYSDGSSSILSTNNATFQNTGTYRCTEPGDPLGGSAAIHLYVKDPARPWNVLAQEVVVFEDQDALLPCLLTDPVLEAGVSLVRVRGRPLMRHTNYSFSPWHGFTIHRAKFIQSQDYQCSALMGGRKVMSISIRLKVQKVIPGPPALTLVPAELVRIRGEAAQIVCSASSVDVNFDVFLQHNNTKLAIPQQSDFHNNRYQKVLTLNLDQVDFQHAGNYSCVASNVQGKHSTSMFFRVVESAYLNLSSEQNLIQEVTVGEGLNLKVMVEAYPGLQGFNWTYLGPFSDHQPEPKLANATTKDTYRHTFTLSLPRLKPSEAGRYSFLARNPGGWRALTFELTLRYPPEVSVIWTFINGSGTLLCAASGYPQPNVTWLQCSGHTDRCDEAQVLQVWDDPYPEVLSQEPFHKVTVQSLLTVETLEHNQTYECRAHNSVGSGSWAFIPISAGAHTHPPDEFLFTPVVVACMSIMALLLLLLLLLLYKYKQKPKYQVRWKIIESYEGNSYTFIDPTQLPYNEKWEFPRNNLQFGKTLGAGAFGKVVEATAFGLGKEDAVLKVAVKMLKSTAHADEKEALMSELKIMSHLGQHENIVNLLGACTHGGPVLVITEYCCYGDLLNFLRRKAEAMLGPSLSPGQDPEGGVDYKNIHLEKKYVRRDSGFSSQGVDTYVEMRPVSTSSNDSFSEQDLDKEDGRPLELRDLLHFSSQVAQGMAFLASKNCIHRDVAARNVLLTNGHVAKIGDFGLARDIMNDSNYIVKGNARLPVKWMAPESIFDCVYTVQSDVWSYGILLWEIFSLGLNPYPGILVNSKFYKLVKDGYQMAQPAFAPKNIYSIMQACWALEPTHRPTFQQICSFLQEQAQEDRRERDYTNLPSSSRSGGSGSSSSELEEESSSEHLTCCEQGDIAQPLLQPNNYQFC
The target of another data set is IGF1R (Homo sapiens, UniProt P08069). In words: In vitro kinase inhibition profile (biochemical). Particulars: read-out: Biochemical (IC50 nmol/L).
The next data set has as its target FGFR1 (Homo sapiens, UniProt P11362). The data set is described as follows: In vitro kinase inhibition profile (biochemical). Particulars: read-out: Biochemical (IC50 nmol/L).
Another data set concerns the target FGFR2 (Homo sapiens, UniProt P21802). The data set is described as follows: In vitro kinase inhibition profile (biochemical). The settings on record: read-out: Biochemical (IC50 nmol/L).
The next data set addresses FGFR3 (Homo sapiens, UniProt P22607). The data set is described as follows: In vitro kinase inhibition profile (biochemical). Particulars: read-out: Biochemical (IC50 nmol/L).
The test system of data set [1] is LS141 (liposarcoma) cells. The data set is described as follows: Cell viability assay (Dojindo CCK-8). It is filed as cell-based. Particulars: LS141, 72 hours, p < 0.05.
The test system of the next data set is p-AKT (Ser473). In words: Western immunoblotting of downstream effector in sarcoma cells. The format is cell-based. Particulars: western blot. How it is done:
[…]. Cell viability was measured using Dojindo Cell Counting Kit 8. Dose response graphs were generated as a percentage of the no drug control. Error bars represent standard error mean. Combined data from three independent experiments is shown. B. Indicated cell lines were grown to 60% confluency in serum free media overnight. […] After the drug treatments, cells were stimulated in drug free media containing 10%FBS. Media containing no FBS was used as unstimulated control. […] Representative western blots from two independent experiments are shown. ND=No Drug, Uns=Unstimulated control.
. Cell viability was measured using Dojindo Cell Counting Kit 8. Graphs were generated as a percentage of the no drug (ND) control. Error bars represent standard error mean. Combined data from at least two independent experiments is shown. Note: For Figure 4A, error bars are included; however, they are too small to be seen. C. Indicated cell lines were grown to 60% confluency in serum free media overnight. […] After the drug treatments, cells were stimulated in drug free media containing 10%FBS. […] Representative western blots from two independent experiments are shown. D. 1,000 cells were plated, in triplicate, onto 100mm dishes and treated the next day with the indicated drugs in media containing 10%FBS for 24 hours. […] Colonies were scored with ColCount software from Oxford Optronix (Abingdon, UK). […]

For data set [2], the system named is MPNST cell line. In words: Colony formation assay. The settings on record: 500 nmol/L, 24 hours treatment, 10 to 14 days drug-free. The format is cell-based. How it is done:
. Cell viability was measured using Dojindo Cell Counting Kit 8. Graphs were generated as a percentage of the no drug (ND) control. Error bars represent standard error mean. Combined data from at least two independent experiments is shown. Note: For Figure 4A, error bars are included; however, they are too small to be seen. C. Indicated cell lines were grown to 60% confluency in serum free media overnight. […] After the drug treatments, cells were stimulated in drug free media containing 10%FBS. […] Representative western blots from two independent experiments are shown. D. 1,000 cells were plated, in triplicate, onto 100mm dishes and treated the next day with the indicated drugs in media containing 10%FBS for 24 hours. Following treatment, cells were cultured in drug-free media for 10 to 14 days. Colonies were scored with ColCount software from Oxford Optronix (Abingdon, UK). Combined data from the experiment carried out in triplicate is shown.
1,000 cells were plated, in triplicate, onto 100 mm dishes and allowed to adhere overnight. Cells were treated for 24 hours with the indicated drugs. Following treatment, cells were cultured in drug-free media for 10 to 14 days. The resulting colonies were fixed in 20% ethanol and stained with 2.5% crystal violet. Colonies were scored with ColCount software from Oxford Optronix (Abingdon, UK).

In data set [3] the test system is MPNST cell line. The data set is described as follows: Flow cytometry cell-cycle analysis. The format is cell-based. The settings on record: increasing concentrations. As to the method:
www.impactjournals.com/oncotarget/ Oncotarget, Supplementary Materials 2015
Supplementary Figure S2: A . LS141 cells were plated in 96-well plates and treated in triplicate with indicated concentration
of drugs for 72 hours. Cell viability was measured using Dojindo Cell Counting Kit 8. Error bars represent standard error mean. Combined
data from at least two independent experiments is shown. […]
fold increase in G1 phase compared to no drug control. * = p<0.05, ** = p<0.005. Error bars represent standard error mean. Combined data
from two independent experiments is shown.
treated with MGCD516. C. MPNST cells were plated in 96-well plates and treated in triplicate with indicated concentrations of drugs for
72 hours. Cell viability was measured using Dojindo Cell Counting Kit 8. Error bars represent standard error mean. Combined data from
two independent experiments is shown. […]
(In general: In flow cytometry, cells or beads pass a laser one at a time.)

In a further data set the test system is MPNST xenografts. In words: MPNST mouse xenograft tumor growth. It is filed as in vivo, ICR/SCID mice. Particulars: MGCD516 15 mg/kg p.o., crizotinib 50 mg/kg i.p., imatinib 30 mg/kg i.p., QD 5 days a week. As to the method:
(§1) […]. […] […]. Tumor size was measured twice weekly by caliper.

For data set [4] the following is noted: mouse, in vivo. How it is done: as §1
Another data set relates to Ki67. In words: Ki67 immunohistochemistry of xenograft tumor tissue. Particulars: 3 weeks treatment, compared to vehicle control.

Chain of EPHB3 (P54753 34-998): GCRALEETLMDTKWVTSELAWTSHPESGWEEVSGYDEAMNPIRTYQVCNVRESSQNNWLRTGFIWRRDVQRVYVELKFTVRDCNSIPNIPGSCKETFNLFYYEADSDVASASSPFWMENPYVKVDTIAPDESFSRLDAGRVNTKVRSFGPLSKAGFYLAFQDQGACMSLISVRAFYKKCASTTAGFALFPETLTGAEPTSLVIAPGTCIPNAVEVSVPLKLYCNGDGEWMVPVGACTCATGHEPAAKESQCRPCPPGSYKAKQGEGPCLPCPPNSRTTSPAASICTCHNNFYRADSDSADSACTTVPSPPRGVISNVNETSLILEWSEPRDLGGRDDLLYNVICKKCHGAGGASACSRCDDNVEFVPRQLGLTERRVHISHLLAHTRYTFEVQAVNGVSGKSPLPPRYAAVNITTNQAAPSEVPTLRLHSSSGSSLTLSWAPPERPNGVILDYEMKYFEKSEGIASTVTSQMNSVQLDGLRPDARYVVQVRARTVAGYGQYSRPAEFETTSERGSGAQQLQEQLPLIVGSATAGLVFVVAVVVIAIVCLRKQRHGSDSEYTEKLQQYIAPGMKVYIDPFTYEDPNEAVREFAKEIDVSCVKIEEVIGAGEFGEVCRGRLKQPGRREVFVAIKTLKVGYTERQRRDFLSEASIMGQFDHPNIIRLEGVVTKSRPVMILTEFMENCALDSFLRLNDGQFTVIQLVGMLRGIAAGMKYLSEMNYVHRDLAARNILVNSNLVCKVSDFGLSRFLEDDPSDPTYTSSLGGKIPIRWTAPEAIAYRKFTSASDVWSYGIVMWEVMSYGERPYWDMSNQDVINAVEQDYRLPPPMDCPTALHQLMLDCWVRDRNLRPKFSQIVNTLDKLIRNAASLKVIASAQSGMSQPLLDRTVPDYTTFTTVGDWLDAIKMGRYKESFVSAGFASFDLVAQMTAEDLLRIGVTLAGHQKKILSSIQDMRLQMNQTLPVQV

With `COCCNCc1ccc(-c2cc3nccc(Oc4ccc(NC(=O)C5(C(=O)Nc6ccc(F)cc6)CC5)cc4F)c3s2)nc1` [MGCD516, Sitravatinib], the IC50 at VEGFR3 (FLT4) is 2 nmol/L; at PDGFRα, 30 nmol/L; at DDR1, 29 nmol/L; at EPHB2 it was 10 nmol/L; on YES, 298 nmol/L; at PYK2, 364 nmol/L. The IC50 was 249 nmol/L at EPHB3; 1940 nmol/L at LTK; 2290 nmol/L on FMS; 3980 nmol/L on IGF1R; above 5000 nmol/L at FGFR1; above 5000 nmol/L on FGFR2. In addition, the IC50 on FGFR3 is above 5000 nmol/L. Moreover, the “anti-proliferative effect compared with carbozantinib and foretinib” value in data set [1] is listed as “significantly higher anti-proliferative effect”. The “inhibition of downstream effectors such as p-AKT (Ser473), comparison with imatinib and crizotinib” value in the data set on p-AKT (Ser473) (DDLS and MPNST) is reported as “significantly better inhibition”. Also, the “down-regulation of p-AKT (Ser473)” value in the data set on p-AKT (Ser473) (increasing concentrations of MGCD516) is “significant down-regulation of p-AKT (Ser473)”. In addition, in the data set with MPNST cell line [2], the colony number entry was “significant reduction in colony number”. Besides, in the data set on MPNST cell line [3], the cell-cycle effect result is reported as “significant G1 cell-cycle arrest”. Besides, the tumor growth entry in the data set on MPNST xenografts is on record as “significant suppression of tumor growth”. In [4], the “toxicity as determined by animal weight” value is listed as “did not result in toxicity”. Besides, in the data set with Ki67, the “Ki67 staining of tumor samples” value is on record as “significantly less Ki67 staining”.
